Test results taken from patent US8158577B2, “Modulation of cartilage homeostasis by active domains of cell binding extracellular matrix molecules” (priority 2004, dated 2012).
Entries after “also recorded” stand apart in the source; their conditions may differ.

Legend:
K105 cells [1] = assay: Effect on K105 cells already adherent to chondroadherin, light microscopy time study (FIG. 7, 9, 10); type: cell-based, human; conditions: peptide 250 μg/ml added after 30 min adhesion; light microscopy after 1, 3 and 20 hours
Experimental: To test cell binding, the chondrosarcoma cells or bovine chondrocytes were suspended in PBS containing 0.1% BSA, 25 U/ml collagenase and added to the wells (50,000/well), in the absence or presence of various peptide pools or the synthetic peptides (200, 100, 50, 25, 12.5 μg/ml). Non-adherent cells were removed after 1 hour and adhesion was determined by measuring lysosomal N-acetylglucosaminidase (12). Adhesion and spreading was visualized by light microscopy. In the time studies, k105 cells were allowed to adhere for 30 minutes, unbound cells were removed and medium without serum supplemented with or without peptides (250 μg/ml), β1 integrin antibody (clone P4C10, Gibco BRL), EDTA (5 mM) was added. Cell morphology was visualized by light microscopy after 1, 3 and 20 hours.
(§1) Tissue culture dishes were coated with 5 μg/ml chondroadherin expressed in E. coli and blocked for non-specific binding with BSA. The k105 cells were suspended in PBS containing 0.1% BSA, and added to the wells (50,000/well). Nonadherent cells were removed after 30 min by washing, plain medium without serum with or without peptides (250 μg/ml) was added and bound cells were visualized by light microscopy after 1, 3 and 20 hours.
as §1, with “The” for “The k105”, “hours. […] The activity for integrin binding is located in the C-terminal eight residues of the sequence involving the WLEAK (SEQ ID No. 1) sequence.” for “hours.”
as §1, with “washing, peptide, anti β1 antibody, 5 mM EDTA or” for “washing,”, “serum” for “serum with or without peptides (250 μg/ml)”, “1 and” for “1,”, “3” for “3 and 20”

[2] = Heparin binding on Heparin-Sepharose; conditions: eluted with NaCl (0.5, 1, 2M); Western blot or MALDI-TOF MS
Experimental: Intact recombinant protein (10 μg, EBNA-cell expressed) diluted in PBS was passed over Heparin-Sepharose (Amersham Pharmacia) (1 ml), washed with 20 volumes of PBS and eluted with 2 M NaCl (6×1 ml). Eluted material was precipitated with ethanol, separated by SDS-PAGE (10%) and visualized by western blot (CHAD ab α-80, Larsson et al). The peptide CKFPTKRSKKAGRH (SEQ ID No:7) was diluted in PBS and passed over heparin-sepharose (100 μl), the column was washed with 20 volumes PBS and bound material eluted with 0.5, 1, and 2M NaCl (3 column volumes of each).
Recombinant chondroadherin (10 or 100 μg) expressed in EBNA-cells was passed over Heparin-Sepharose-column (Pharmacia). The column was washed and eluted with 2M NaCl in PBS. Eluted material was separated on SDS-PAGE (10%) and detected by western blot using a chondroadherin antibody (see FIG. 4). The band at 36 kDa represents chondroadherin ant the band at 72 kDa represents a dimer of chondroadherin.
The candidate peptide CKFPTKRSKKAGRH (SEQ ID No: 7) was synthesized. The ability of the peptide to bind heparin was confirmed on heparin-sepharose, where material eluted with 0.5, 1 and 2M NaCl was identified by MALDI-TOF MS (data not shown).

K105 cells [3] = assay: Adhesion of K105 cells to the coated cell binding peptides (FIG. 8); type: cell-based, human
Experimental: Tissue culture dishes were coated with 33 μg/ml (20 µM) peptide solution. The cells (50,000/well) were suspended in PBS containing 0.1% BSA, 25 U/ml collagenase and added to the wells in the presence or absence of synthetic peptide (250 μg/ml) and allowed to adhere for 1 hour at 37° C. Nonadherent cells were removed by washing. Spreading was visualized by light microscopy.

H-CKFPTKRSKKAGRH-OH [SEQ ID No. 7]
spreading, migration and aggregation of k105 cells adherent to chondroadherin (K105 cells [1]): spreading and migration increased
binding to heparin-sepharose [2]: confirmed; also recorded: bind heparin
adhesion and shape of k105 cells plated on the peptide (K105 cells [3]; dishes coated with 33 μg/ml peptide, 1 hour at 37° C.): adhere and spread
inhibition of k105 adhesion to the coated peptide by the same peptide in solution (K105 cells [3]; peptide in solution 250 μg/ml): unable to inhibit adhesion
